Experiment [1] addresses T1, extracellular domains of PD-L1 (Homo sapiens, UniProt Q9NZQ7).
T1 construct: specifically dimerize the extracellular domains of PD-L1
The experiment in a line: PD-L1 Dimerization. The class given is biochemical. As to conditions: PD-L1-Eu and PD-L1-A2, ratio 665 nm/615 nm. Here is the method: Example 108. PD-L1 Dimerization
Compounds were tested in biochemical protein-protein interaction assays to determine if they can specifically dimerize the extracellular domains of PD-L1. • (1) Diluted cpd 1:3 in succession in DMSO for each column for 10 samples • (2) Transferred 0.2 μL cpds solution in each row to 384 assay plate using Echo, each column containing 2 replicates • (3) Added 20 μL prepared mixture include PD-L1-Eu and PD-L1-A2 solution to assay plate, centrifuged at 1000 rpm for 1 min. • (4) Incubated at 25° C. for […]. • (5) Read fluorescence signal on Envision 2104 plate reader. • (6) Read the Ratio (665 nm/615 nm) signal on Envision. • (7) Analyzed the raw data using the equation (V. Data analysis)

Another experiment deals with T2, PD-1/PD-L1 (Homo sapiens, UniProt Q9NZQ7).
T2 construct: Recombinant human PD-L1 protein (19-238) with a Histag at the C-terminus; purchased AcroBiosystems PD1-H5229 (PD-L1); PD1-H5257 (PD-1)
T2 sequence (Q9NZQ7 19-238): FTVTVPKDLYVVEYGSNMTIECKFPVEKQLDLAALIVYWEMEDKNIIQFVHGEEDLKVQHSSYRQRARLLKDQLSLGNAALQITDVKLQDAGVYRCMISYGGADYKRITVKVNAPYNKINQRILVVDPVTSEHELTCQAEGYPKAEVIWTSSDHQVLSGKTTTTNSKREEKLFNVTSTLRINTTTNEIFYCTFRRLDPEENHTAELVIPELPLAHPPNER
In words: PD-1/PD-L1 Homogeneous Time-Resolved Fluorescence (HTRF) Binding Assay. The following applies: PD-1/PD-L1 HTRF activity; 3 nM PD1, 10 nM PD-L1, 25° C. The essentials:
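Human PD-L1 (19-238, His-tag) 10 nM and PD-1 (25-167, Fc-tag) 3 nM preincubated 40 min with inhibitor in PBS pH 7.4, 0.05% Tween-20, 0.1% BSA, 1% DMSO, 25 °C. Eu-anti-human IgG (1 nM) and anti-His-APC (20 nM) added, 60 min, 665/620 nm ratio; IC50 from percent control activity versus log concentration.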
Background: TR-FRET usually uses a lanthanide donor and a delayed reading to cut background.

T1 sequence (Q9NZQ7 19-238 limits assumed): as the sequence (Q9NZQ7 19-238) above

Usually EC50 stands for the concentration at which the effect is half-maximal. A word on the IC50: it is the concentration at which inhibition is half-maximal. Read a low IC50 as higher potency. On to `Cn1c(CN2CC[C@H](C(=O)O)C2)cn2cc(-c3cccc(-c4cccc(-c5cc6c(=O)n(C)c(CN7CC[C@H](C(=O)O)C7)cn6c5)c4Cl)c3Cl)cc2c1=O` [Compound 43, (3S,3'S)-1,1′-(((2,2′-dichloro-[1,1′-biphenyl]-3,3′-diyl)bis(2-methyl-1-oxo-1,2-dihydropyrrolo[1,2-a]pyrazine-7,3-diyl))bis(methylene))bis(pyrrolidine-3-carboxylic acid)], for which the EC50 in experiment [1] lay in the range of 50 to 100 nM. Also, the IC50 on PD-1/PD-L1 lay within 10 to 100 nM.

On to `Cc1cn2cc(-c3cccc(-c4cccc(-c5cc6c(=O)n(CCNC[C@@H]7CCC(=O)N7)c(C)cn6c5)c4Cl)c3Cl)cc2c(=O)n1CCNC[C@@H]1CCC(=O)N1` [Compound 49, 7,7′-(2,2′-dichloro-[1,1′-biphenyl]-3,3′-diyl)bis(3-methyl-2-(2-((((S)-5-oxopyrrolidin-2-yl)methyl)amino)ethyl)pyrrolo[1,2-a]pyrazin-1(2H)-one)], for which the EC50 in experiment [1] is at least 100 nM. On PD-1/PD-L1, the IC50 was below 10 nM.

As for `Cn1c(CN[C@@H](CO)C(=O)O)cn2nc(-c3cccc(-c4cccc(-c5cc6c(=O)n(C)c(CN[C@@H](CO)C(=O)O)cn6n5)c4Cl)c3Cl)cc2c1=O` [Compound 80, (2S,2'S)-2,2′-((((2,2′-dichloro-[1,1′-biphenyl]-3,3′-diyl)bis(5-methyl-4-oxo-4,5-dihydropyrazolo[1,5-a]pyrazine-2,6-diyl))bis(methylene))bis(azanediyl))bis(3-hydroxypropanoic acid)], in experiment [1], the concentration giving a half-maximal response (EC50) was at least 100 nM. The IC50 at PD-1/PD-L1 was 10 to 100 nM.

`Cc1cn2nc(-c3cccc(-c4cccc(-c5cc6c(=O)n(CCN7CCNCC7)c(C)cn6n5)c4Cl)c3Cl)cc2c(=O)n1CCN1CCNCC1` [Compound 83, 2,2′-(2,2′-dichloro-[1,1′-biphenyl]-3,3′-diyl)bis(6-methyl-5-(2-(piperazin-1-yl)ethyl)pyrazolo[1,5-a]pyrazin-4(5H)-one)] came in with an IC50 at PD-1/PD-L1 of at least 100 nM.

In the case of `Cc1cn2nc(-c3cccc(-c4cccc(-c5cc6c(=O)n(CCN7C[C@@H](O)CC[C@H]7C(=O)O)c(C)cn6n5)c4Cl)c3Cl)cc2c(=O)n1CCN1C[C@@H](O)CC[C@H]1C(=O)O` [Compound 84, (2S,2'S,5S,5'S)-1,1′-(((2,2′-dichloro-[1,1′-biphenyl]-3,3′-diyl)bis(6-methyl-4-oxopyrazolo[1,5-a]pyrazine-2,5(4H)-diyl))bis(ethane-2,1-diyl))bis(5-hydroxypiperidine-2-carboxylic acid)], the IC50 at PD-1/PD-L1 was at least 100 nM.

The molecule `Cc1cn2nc(-c3cccc(-c4cccc(-c5cc6c(=O)n(CCN7CCOCC7C(=O)O)c(C)cn6n5)c4Cl)c3Cl)cc2c(=O)n1CCN1CCOCC1C(=O)O` (centres unmarked) [Compound 86, 4,4′-(((2,2′-dichloro-[1,1′-biphenyl]-3,3′-diyl)bis(6-methyl-4-oxopyrazolo[1,5-a]pyrazine-2,5(4H)-diyl))bis(ethane-2,1-diyl))bis(morpholine-3-carboxylic acid)] displayed an IC50 on PD-1/PD-L1 of at least 100 nM.

`Cc1cn2nc(-c3cccc(-c4cccc(-c5cc6c(=O)n(CC(C)N[C@@H](CO)C(=O)O)c(C)cn6n5)c4Cl)c3Cl)cc2c(=O)n1CC(C)N[C@@H](CO)C(=O)O` (stereo partly drawn) [Compound 87, (2S,2'S)-2,2′-((((2,2′-dichloro-[1,1′-biphenyl]-3,3′-diyl)bis(6-methyl-4-oxopyrazolo[1,5-a]pyrazine-2,5(4H)-diyl))bis(propane-1,2-diyl))bis(azanediyl))bis(3-hydroxypropanoic acid)] came in with an IC50 on PD-1/PD-L1 of at least 100 nM.

The molecule `Cc1cn2nc(-c3cccc(-c4cccc(-c5cc6c(=O)n(CCNC7(C(=O)O)CCC(O)CC7)c(C)cn6n5)c4Cl)c3Cl)cc2c(=O)n1CCNC1(C(=O)O)CCC(O)CC1` (centres unmarked) [Compound 88, 1,1′-((((2,2′-dichloro-[1,1′-biphenyl]-3,3′-diyl)bis(6-methyl-4-oxopyrazolo[1,5-a]pyrazine-2,5(4H)-diyl))bis(ethane-2,1-diyl))bis(azanediyl))bis(4-hydroxycyclohexane-1-carboxylic acid)] displayed an IC50 on PD-1/PD-L1 of 10 to 100 nM.

For the molecule `Cc1cn2nc(-c3cccc(-c4cccc(-c5cc6c(=O)n(CCN[C@H]7C[C@H](O)C7)c(C)cn6n5)c4Cl)c3Cl)cc2c(=O)n1CCN[C@H]1C[C@H](O)C1` [Compound 90, 2,2′-(2,2′-dichloro-[1,1′-biphenyl]-3,3′-diyl)bis(5-(2-(((1r,3r)-3-hydroxycyclobutyl)amino)ethyl)-6-methylpyrazolo[1,5-a]pyrazin-4(5H)-one)], the EC50 in experiment [1] is below 50 nM. The molecule also gave an IC50 at PD-1/PD-L1 below 10 nM.

`Cc1cn2nc(-c3cccc(-c4cccc(-c5cc6c(=O)n(CCN[C@H]7C[C@@H](O)C7)c(C)cn6n5)c4Cl)c3Cl)cc2c(=O)n1CCN[C@H]1C[C@@H](O)C1` [Compound 91, 2,2′-(2,2′-dichloro-[1,1′-biphenyl]-3,3′-diyl)bis(5-(2-(((1s,3s)-3-hydroxycyclobutyl)amino)ethyl)-6-methylpyrazolo[1,5-a]pyrazin-4(5H)-one)]: in experiment [1], the EC50 is below 50 nM. The molecule also yielded an IC50 on PD-1/PD-L1 below 10 nM.

`Cc1cn2nc(-c3cccc(-c4cccc(-c5cc6c(=O)n(C[C@@H]7C[C@@H](O)CN7)c(C)cn6n5)c4Cl)c3Cl)cc2c(=O)n1C[C@@H]1C[C@@H](O)CN1` [Compound 92, 2,2′-(2,2′-dichloro-[1,1′-biphenyl]-3,3′-diyl)bis(5-(((2S,4R)-4-hydroxypyrrolidin-2-yl)methyl)-6-methylpyrazolo[1,5-a]pyrazin-4(5H)-one)] registered an IC50 on PD-1/PD-L1 below 10 nM.

The molecule `Cc1cn2nc(-c3cccc(-c4cccc(-c5cc6c(=O)n(CCN7CCCC7CCO)c(C)cn6n5)c4Cl)c3Cl)cc2c(=O)n1CCN1CCCC1CCO` (centres unmarked) [Compound 93, 2,2′-(2,2′-dichloro-[1,1′-biphenyl]-3,3′-diyl)bis(5-(2-(2-(2-hydroxyethyl)pyrrolidin-1-yl)ethyl)-6-methylpyrazolo[1,5-a]pyrazin-4(5H)-one)] came in with an IC50 at PD-1/PD-L1 of 10 to 100 nM.

With `Cc1cn2nc(-c3cccc(-c4cccc(-c5cc6c(=O)n(C(C)CN[C@@H](CO)C(=O)O)c(C)cn6n5)c4Cl)c3Cl)cc2c(=O)n1C(C)CN[C@@H](CO)C(=O)O` (stereo partly drawn) [Compound 94, (2S,2'S)-2,2′-((((2,2′-dichloro-[1,1′-biphenyl]-3,3′-diyl)bis(6-methyl-4-oxopyrazolo[1,5-a]pyrazine-2,5(4H)-diyl))bis(propane-2,1-diyl))bis(azanediyl))bis(3-hydroxypropanoic acid)], the IC50 at PD-1/PD-L1 lay within 10 to 100 nM.

As for `Cc1cn2nc(-c3cccc(-c4cccc(-c5cc6c(=O)n(CCN[C@@](C)(CO)C(=O)O)c(C)cn6n5)c4Cl)c3Cl)cc2c(=O)n1CCN[C@@](C)(CO)C(=O)O` [Compound 95, (2S,2'S)-2,2′-((((2,2′-dichloro-[1,1′-biphenyl]-3,3′-diyl)bis(6-methyl-4-oxopyrazolo[1,5-a]pyrazine-2,5(4H)-diyl))bis(ethane-2,1-diyl))bis(azanediyl))bis(3-hydroxy-2-methylpropanoic acid)], the EC50 in experiment [1] was at least 100 nM. For the same molecule, the IC50 at PD-1/PD-L1 fell in the range of 10 to 100 nM.

As to `Cc1cn2nc(-c3cccc(-c4cccc(-c5cc6c(=O)n(CCN[C@](C)(CO)C(=O)O)c(C)cn6n5)c4Cl)c3Cl)cc2c(=O)n1CCN[C@](C)(CO)C(=O)O` [Compound 96, (2R,2′R)-2,2′-((((2,2′-dichloro-[1,1′-biphenyl]-3,3′-diyl)bis(6-methyl-4-oxopyrazolo[1,5-a]pyrazine-2,5(4H)-diyl))bis(ethane-2,1-diyl))bis(azanediyl))bis(3-hydroxy-2-methylpropanoic acid)], the EC50 in experiment [1] is at least 100 nM. The IC50 at PD-1/PD-L1 was in the range of 10 to 100 nM.

Consider `Cc1cn2nc(-c3cccc(-c4cccc(-c5cc6c(=O)n(CCN[C@]7(C(=O)O)C[C@@H](O)C7)c(C)cn6n5)c4Cl)c3Cl)cc2c(=O)n1CCN[C@]1(C(=O)O)C[C@@H](O)C1` [Compound 101, (1r,1′r,3r,3′r)-1,1′-((((2,2′-dichloro-[1,1′-biphenyl]-3,3′-diyl)bis(6-methyl-4-oxopyrazolo[1,5-a]pyrazine-2,5(4H)-diyl))bis(ethane-2,1-diyl))bis(azanediyl))bis(3-hydroxycyclobutane-1-carboxylic acid)], for which the EC50 in experiment [1] was below 50 nM. At PD-1/PD-L1, this molecule came in with an IC50 below 10 nM.

On to `Cc1cn2nc(-c3cccc(-c4cccc(-c5cc6c(=O)n(CCN[C@]7(C(=O)O)C[C@H](O)C7)c(C)cn6n5)c4Cl)c3Cl)cc2c(=O)n1CCN[C@]1(C(=O)O)C[C@H](O)C1` [Compound 102, (1S,1'S,3S,3'S)-1,1′-((((2,2′-dichloro-[1,1′-biphenyl]-3,3′-diyl)bis(6-methyl-4-oxopyrazolo[1,5-a]pyrazine-2,5(4H)-diyl))bis(ethane-2,1-diyl))bis(azanediyl)) bis(3-hydroxycyclobutane-1-carboxylic acid)], for which, at PD-1/PD-L1, the IC50 was below 10 nM.

At PD-1/PD-L1, “(2S,2'S,4R,4′R)-1,1′-(((2,2′-dichloro-[1,1′-biphenyl]-3,3′-diyl)bis(3-methyl-1-oxopyrrolo[1,2-a]pyrazine-7,2(1H)-diyl))bis(ethane-2,1-diyl))bis(4-hydroxypyrrolidine-2-carboxylic acid) [Compound 59]” displayed an IC50 of at least 100 nM.

(Values after patent US20260248783A1 (ASCLETIS BIOSCIENCE CO., LTD., priority 2021, published 2026).)
